# From patent US4443434A, “Antiulcer agent” (American Home Products Corporation, priority 1982, dated 1984)
# What was measured:
# [1] = system: gastric acid secretion; settings: on a molar basis; cited from earlier work
# [2] = system: gastric blood flow; assay: gastric blood flow by 86Rb distribution in rats; type: in vivo, rat; settings: 1 mg/kg/hr i.v. infusion, 86RbCl at 30 min, mean ± S.E.M., 5 animals per group; saline 1.20 ± 0.05
# Procedure: The effect of the octapeptide on gastric blood flow was established by the following procedure:
# Rats weighing 280-350 gms were used. Rats were anesthatized with 50 mg/kg Nembutal and their left jugular veins cannulated. Somatostatin, 1 mg/kg/hr, was infused i.v. in one group of rats while a second group received a saline infusion. In a second experiment the octapeptide of the method of this invention, 1 mg/kg, or saline was injected s.c. Thirty minutes following the start of the experiment 20 μCi/rat of ^86 RbCl was injected i.v. The rats were killed 20 seconds later by injection of 0.5 ml Nembutal. The blood flow to the stomach was determined by counting ^86 Rb in the disected stomachs of the rats.
# [3] = system: gastric acid secretion; settings: dose as high as 2 μm/kg, s.c.; cited from earlier work
compound,measurement,setting,value
CSCCC(NC(=O)C(Cc1c[nH]c2ccccc12)NC(=O)CNC(=O)C(Cc1ccc(O)cc1)NC(=O)C(C)NC(=O)C(CCC(=O)O)NC(=O)C(CCC(=O)O)NC(=O)C(CCC(=O)O)NC(=O)[C@H](CCC(=O)O)NC(=O)[C@H](CCC(=O)O)NC(=O)[C@H](CC(C)C)NC(=O)[C@H](Cc1c[nH]c2ccccc12)NC(=O)[C@@H]1CCCN1C(=O)CNC(=O)[C@@H](N)CCC(=O)O)C(=O)NC(CC(=O)O)C(=O)NC(Cc1ccccc1)C(N)=O (stereo in doubt) [gastrin],potency as stimulant of gastric acid secretion relative to histamine,[1],"1,500 times"
"C[C@H](N)C(=O)NCC(=O)N[C@H]1CSSC[C@@H](C(=O)O)NC(=O)[C@H](CO)NC(=O)[C@H]([C@@H](C)O)NC(=O)[C@H](Cc2ccccc2)NC(=O)[C@H]([C@@H](C)O)NC(=O)[C@H](CCCCN)NC(=O)[C@H](Cc2c[nH]c3ccccc23)NC(=O)[C@H](Cc2ccccc2)NC(=O)[C@H](Cc2ccccc2)NC(=O)[C@H](CC(N)=O)NC(=O)[C@H](CCCCN)NC1=O [somatostain, somatostatin]",% total 86Rb in stomach,[2],1.03 ± 0.05%
D-Lys^6 -SRIF,effect on gastric acid secretion,[3],no appreciable effect
